Row | Structure (SMILES) | melting point [°C]
1 | COC(=O)c1cc(C(=O)OC)nc(O)n1 | 186 to 188
2 | CC1CCCC(C)(C)C1CS(=O)(=O)c1ccccc1 (configuration not stated) | 73
3 | O=C(O)C=CC(=O)NNC(=O)N1Cc2ccccc2Oc2ccc(Cl)cc21 | 171 to 172
4 | CCCCCC(CC(=O)Nc1cc(C(=O)O)ccc1C(C)(C)C)c1ccc(C)cc1OC (configuration not stated) | 164 to 165
5 | CNC(=O)c1n[nH]cc1NC(=O)c1ccccn1 | 248 to 249
6 | CSc1ccc(C2=NC[C@@H](OC(=O)Nc3ccccc3)[C@H](c3ccccc3)O2)cc1 (racemic) | 170
7 | CCCCCCCCC(O)Cc1ccc(OCc2ccccc2)c(OCc2ccccc2)c1 (configuration not stated) | 55 to 57
8 | COc1cc(-c2cc3ccccc3[nH]2)ccc1O | 165
9 | CCCCN(CCCC)C(=O)Nc1ccc(C)cc1C | 48 to 50
10 | CC(CC=O)P(=O)(O)CCCCc1ccccc1 (configuration not stated) | 138
11 | O=C(NC(c1ccccc1)(c1ccccc1)c1ccccc1)c1ccccc1 | 200 to 202
12 | COc1ccc2c(c1)C(=O)C(CC=O)C2 (racemic) | 59
13 | COc1[nH]c(C)c(SC(F)(Cl)Cl)c1C#N | 175
14 | COC(=O)c1ccc(NCc2cccc(F)c2)cc1 | 107 to 110
15 | Cc1cccc(N(C)c2n[nH]c3ncnc(Nc4cccc(Cl)c4)c23)n1 | 231 to 233
16 | CC1=CCN(C)C2C1N2C#N (configuration not stated) | 117
17 | CC(C)(C)c1cc(OCCCCc2nnn[nH]2)cc(C(C)(C)C)c1 | 140 to 141
18 | CC(=O)Oc1ccc(C(=O)c2cccc(C(=O)O)c2)cc1 | 190 to 193
19 | CCN(C)C(=O)Nc1ccc2c(c1)C(c1ccccc1F)=NCC(=O)N2C | 165 to 168
20 | CN1CC(=O)Nc2ccccc21 | 132
21 | COc1ccc(C(=O)Nc2c(Cl)cncc2Cl)c2c1[nH]c1ccccc12 | > 250
22 | CN(C)Cc1cccc(-c2cc(C(N)=O)ccc2C(N)=O)c1 | 162 to 165
23 | CCCCCNC(=O)CCCO | 41 to 43
24 | CCCN(Cc1ccc(NCCN(CC)CC)c2c(=O)c3ccccc3sc12)S(C)(=O)=O | 142 to 143
25 | Cc1c([N+](=O)[O-])ccnc1C(=O)NCCNC(=O)OC(C)(C)C | 133 to 134
26 | CCCNS(=O)(=O)CCCCl | 47.5 to 48

Row | Structure (SMILES) | melting point [°C]
27 | CSC(=N[N+](=O)[O-])NC(C)=O | 109 to 110
28 | CCN(CC)c1ccc(CNc2cc(C(=O)Nc3ccc(F)c(F)c3)ccc2OC)cc1 | 165 to 167
29 | Cn1cccc1C(=O)c1[nH]c2ccc(Cl)cc2c1CC(=O)O | 203 to 205
30 | Fc1ccc(C2OC(=S)OC2(Cn2cncn2)c2ccc(Cl)cc2Cl)cc1 (configuration not stated) | 169 to 170
31 | CC12CC(N3CCC(O)CC3)C(O)CC1CCC1C2CCC2(C)C(O)C(N3CCC(O)CC3)CC12 (configuration not stated) | 248 to 250
32 | COc1ccc2cccc(C(O)CNC(C)=O)c2c1 (configuration not stated) | 173 to 175
33 | CCCCCc1ccc(-c2ccc(-c3c(C(=O)OC)c4c(c5ccccc35)OC(c3ccccc3)(c3ccc(N(CC)CC)cc3)C=C4)cc2)cc1 (configuration not stated) | 177 to 178
34 | COc1cc(C(=O)N(C(C)C)C(C)C)ccc1OCCCCCOc1ccc(C=NN)cc1 | 112 to 114
35 | O=C(C1CCCCC1)C1CCN(C(=O)c2cc(O)c(O)c([N+](=O)[O-])c2)CC1 | 155 to 165
36 | OP(O)C(NC(c1ccccc1)c1ccccc1)c1ccco1 (configuration not stated) | 193
37 | CCc1c(C(=O)C(N)=O)c2c(OCC(=O)N(C)OC)cccc2n1Cc1ccccc1 | 168 to 170
38 | Cc1ccc2c(c1)N(CC(=O)c1ccccc1C)C(=O)C(NC(=O)Nc1cccc(C(=O)O)c1)CN2C(=O)c1ccco1 (configuration not stated) | 219 to 221
39 | Cc1ccc(CSc2ccc(Cl)cc2)cc1 | 72 to 73
40 | CCCc1c(C(=O)NCc2ccc(-c3ccc(O)c(Br)c3)cc2)cnn1-c1ccccc1 | 184 to 186
41 | COc1ccc(O)c(NC(=O)C(Br)c2ccccc2)c1 (configuration not stated) | 145 to 147
42 | CNC(=O)C1CN(CC(=O)Nc2c(C)cc(C)cc2C)CCN1CCCC(c1ccc(F)cc1)c1ccc(F)cc1 (configuration not stated) | 82.3
43 | CC1(O)CCC2C3CCC4=CC(=O)CCC4C3C(=CF)CC21C (configuration not stated) | 127 to 131
44 | COc1ccc(I)cc1C=O | 140 to 142
45 | COc1ccc(C(=O)c2cc(F)ccc2F)c(O)c1Cl | 178 to 180
46 | Cc1ccc2c(c1)c(C)c(C(=O)OCc1ccccc1)n2CCC#N | 71
47 | O=C1Nc2ccccc2N(C(=O)Cl)c2c1csc2Cl | 158 to 161
48 | CN(C)[C@H]1CC[C@H](NC(=O)OC(C)(C)C)C1 | 65 to 67
49 | COc1cc(CN2CCc3cc(OCc4ccccc4)c(OC)cc3C2=O)cc(OC)c1 | 82 to 83
50 | COc1cc2cc(C(=O)CCC(=O)O)sc2cc1OC | 177 to 178
51 | COc1ccc2[nH]c(C(=O)c3ccc(Cl)cc3)c(CC(=O)O)c2c1 | 200 to 204
52 | CN(C)CC1CCc2cc(OC(=O)c3ccc(-c4ccccc4)cc3)ccc2C1 (configuration not stated) | 85 to 86

Now from value to compound:

Row | melting point [°C] | Structure (SMILES)
53 | 187 to 188 | Cc1c(-c2ccnc(Nc3ccc(C(=O)N4CCOCC4)cc3)n2)cccc1[N+](=O)[O-]
54 | 198 to 202 | CN(C)c1ccc2c(c1)N(CCCN1CCC(C(=O)O)CC1)c1ccccc1CC2
55 | 114 to 116 | O=C(CC1=NCCN1)N1CCOc2ccc(S(=O)(=O)c3ccccc3)cc21
56 | 109 to 111 | CCN(CC)C(=O)n1cc(F)c(S(=O)(=O)c2c(C)cc(C)cc2C)n1
57 | 135 to 137 | CNc1nc(-c2cccc(NC(=O)c3cccnc3N3CCCC3)c2)c2cc(OC)c(OC)cc2n1
58 | 196 to 197 | O=c1[nH][nH]c(C(F)(F)F)c1Cc1ccc2c(c1)OCO2
59 | 213 to 214 | CON1C=C2N=Nc3cc(C)cnc3N2C1
60 | 234 | N#Cc1ccc(C(=O)NCc2ccc(N3CC(C(=O)O)OC3=O)cc2)cc1 (configuration not stated)
61 | 114 to 131 | CON=C(C)CN1C(=O)c2ccccc2C1=O
62 | 141 to 142 | COC(=O)Cn1c(=O)c(=O)[nH]c2cc(C(F)(F)F)c(-n3cccc3)cc21
63 | 193 to 194 | Cn1c(C(F)(F)F)cc(=O)n(-c2ccc3snc(C=O)c3c2)c1=O
64 | > 300 | NNC(=O)C1=Nc2cccc3c(=O)[nH]nc(c23)N1
65 | 285 to 288 | Nc1c2c(=O)n3c(nc2nn1CC(F)(F)F)SCC3
66 | 181 to 184 | C[C@H](NS(=O)(=O)c1ccc(-c2c(C#N)c3ccc(C4CC4)cc3n2-c2ncccn2)nc1)C(F)(F)F
67 | 71 to 74 | CCN1CCN(CC)c2cc(Nc3nc(Cl)ncc3Cl)ccc2C1=O
68 | 117 to 119 | CCCN(c1ccccc1)c1nc(C)nc(SC)c1[N+](=O)[O-]
69 | 112 to 113 | COC(=O)COc1ccc(SCc2cc(-c3ccc(C(F)(F)F)cc3)on2)c2c1CCCO2
70 | 150 to 160 | Cc1ccc(S(=O)(=O)N2CCCC2c2nnnn2[C@@](C)(Cc2ccc([N+](=O)[O-])cc2)C(=O)O)cc1 (some centres not stated)
71 | 152 to 153 | CC1(C)Oc2ccc(C#N)cc2[C@@H](N2CCCNC2=NC#N)[C@@H]1O (relative stereo)
72 | 108 to 110 | CCOCc1nc2c(N)nc(C)c(C)c2n1NC1CCCCC1
73 | 200 | CCOC(=O)c1cnc(OCC)c2c(C)n[nH]c12
74 | 167 to 170 | Cc1cnc2c(c1)S(=O)(=O)N(Cc1ccccc1)C2=O
75 | 84.5 to 86 | FC(F)(F)/C(=C(\c1ccccc1)c1ccc(OCCN2CCCC2)cc1)c1ccccc1
76 | 83 to 85 | CCC1(CC)CN(C(C)(C)C)C(=O)C(CC)(CC)N1OCc1ccccc1
77 | 229 to 231 | O=c1c(Cc2ccccn2)cc2cccnc2n1-c1cccc([N+](=O)[O-])c1

Row | melting point [°C] | Structure (SMILES)
78 | 100 to 102 | CCn1ncc2c(Cl)c(C#N)cnc21
79 | 96 to 97 | Cc1nc(-c2c(F)cccc2Cl)nn1-c1ccc(COc2ncc(C(F)(F)F)cc2Cl)cc1
80 | 158 to 160 | CN(C)CCOc1ccc2nc(C#N)nc(NC3CCCC3)c2c1
81 | 245 to 246 | N#Cc1ccccc1C#CC1(C(F)(F)F)OC(=O)Nc2ccc(Cl)cc21 (racemic)
82 | 140 to 142 | CC(=O)NC[C@H]1CN(c2ccc(N3CCC4(CC3)OCCO4)cc2)C(=O)O1
83 | 90 to 99 | Cc1cc(C)n(-c2ncc(Cl)c(NC3CCCCC3)n2)n1
84 | 197 to 199 | CCn1ncc2c(NCC3CCCCC3)c3cc(OCC(O)CO)ccc3nc21 (configuration not stated)
85 | 130 | O=S1(=O)c2cccc3cccc(c23)N1CC(O)CN1CCN(c2ccc(F)cc2)CC1 (configuration not stated)
86 | 61 to 62 | COCCNCCc1ccc(Nc2ncc3c(n2)-c2ccccc2C(c2ccccc2C(F)(F)F)C3)cc1 (configuration not stated)
87 | 140 to 142 | Cc1nc[nH]c1CSCCNc1nc(C)c(Cc2ccccc2)c(=O)[nH]1
88 | 128 to 130 | Cc1nc(N)c(N)cc1Cl
89 | 172 to 173 | O=C(NCCO)c1ccnc(-c2cccc3cc(Cc4cc(F)cc(Cl)c4)sc23)c1
90 | 174 to 176 | COc1ccc(-c2c(CO)c(CO)c3n2Cc2ccccc2C3)cc1
91 | 143 to 145 | O=c1cc(N2CCOCC2)oc2cc(OS(=O)(=O)C(F)(F)F)ccc12
92 | 107 to 109 | CN(C)c1ccc(CC(=O)N2CCC(c3[nH]nc4c3C(=O)c3c(NC(=O)NN5CCOCC5)cccc3-4)CC2)cc1
93 | 193 to 195 | COCOCc1nc(N)c2ncc(OC)nc2n1
94 | 131 to 133 | Cc1cc(F)c(-n2c(=O)oc3c(c2=O)CCC3)cc1OC(C)C
95 | 150 to 152 | COCCc1nc2c(N)nc3c(c2n1CCCNS(C)(=O)=O)CCCC3
96 | 128 to 129 | COc1cc(CC(C#N)=CN2CCOCC2)cc(OC)c1N
97 | 272 to 276 | O=C(O)c1cn(-c2nnc(C(F)(F)F)s2)c2cc(F)c(F)cc2c1=O
98 | 119 to 123 | OCC1(n2nc3ccccc3n2)OCC1c1ccccc1 (configuration not stated)
99 | 250 | CC1(O)CCCc2nc3ccccc3c(N)c21 (configuration not stated)
100 | 240 to 241 | O=C(O)c1cnc(S)n1Cc1cc(F)cc(F)c1
101 | 127 to 129 | CCOC(=O)c1sc2cc(Cn3ccnc3)ccc2c1Cl
102 | 186 to 190 | CC(C)C1(C)N=C(c2ncc(CN(C)C)cc2C(=O)O)NC1=O (configuration not stated)
